# Laboratory results taken from patent US9676723B2, “Factor XIa inhibitors” (Merck Sharp & Dohme Corp., priority 2014, dated 2017).
# Where a name gives a salt, the structure may show the parent alone.
# Biological target: T1, human Factor XIa (Homo sapiens, UniProt P03951)
# T1 construct: purified human Factor XIa; purchased Sekisui Diagnostics
# Experiment: Factor XIa Assay (fluorogenic substrate Z-Gly-Pro-Arg-AFC hydrolysis)
# Assay type: biochemical
# Settings: purified human Factor XIa 40 pM; substrate Z-Gly-Pro-Arg-AFC 100 μM; 50 mM HEPES pH 7.4; read-out: hu Factor XIa Ki
# Procedure: The effectiveness of compounds of the present invention as inhibitors of Coagulation Factor XIa can be determined using a relevant purified serine protease, and an appropriate synthetic substrate. The rate of hydrolysis of the chromogenic or fluorogenic substrate by the relevant serine protease was measured both in the absence and presence of compounds of the present invention. Assays were conducted at room temperature or at 37° C. […] A decrease in the rate of fluorescence change in the presence of inhibitor is indicative of enzyme inhibition. Such methods are known to one skilled in the art. The results of this assay are expressed as the inhibitory constant, Ki.
# Factor XIa determinations were made in 50 mM HEPES buffer at pH 7.4 containing 150 mM NaCl, 5 mM CaCl2, and 0.1% PEG 8000 (polyethylene glycol; JT Baker or Fisher Scientific). Determinations were made using purified human Factor XIa at a final concentration of 40 pM (Sekisui Diagnostics) and the synthetic substrate, Z-Gly-Pro-Arg-AFC, TFA salt (Sigma #C0980) at a concentration of 100 μM.
# Activity assays were performed by diluting a stock solution of substrate at least tenfold to a final concentration ≦0.1 Km into a solution containing enzyme or enzyme equilibrated with inhibitor. Times required to achieve equilibration between enzyme and inhibitor were determined in control experiments. Initial velocities of product formation in the absence (Vo) or presence of inhibitor (Vi) were measured. Assuming competitive inhibition, and that unity is negligible compared Km/[S], [I]/e, and [I]/e (where [S], [I], and e respectively represent the total concentrations, of substrate, inhibitor and enzyme), the equilibrium constant (Ki) for dissociation of the inhibitor from the enzyme can be obtained from the dependence of Vo/Vi on [I] shown in the following equation. Vo/Vi=1+[I]/Ki
# T1 sequence (P03951 388-625 limits assumed): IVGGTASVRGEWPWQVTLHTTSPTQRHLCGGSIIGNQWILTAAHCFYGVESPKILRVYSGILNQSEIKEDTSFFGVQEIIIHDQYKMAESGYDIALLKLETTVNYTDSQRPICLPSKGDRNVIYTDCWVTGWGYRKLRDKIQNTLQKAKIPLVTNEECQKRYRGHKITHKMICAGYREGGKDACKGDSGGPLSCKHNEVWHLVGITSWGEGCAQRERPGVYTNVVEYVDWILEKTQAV
# T1 sequence (P03951 19-387 partner limits assumed): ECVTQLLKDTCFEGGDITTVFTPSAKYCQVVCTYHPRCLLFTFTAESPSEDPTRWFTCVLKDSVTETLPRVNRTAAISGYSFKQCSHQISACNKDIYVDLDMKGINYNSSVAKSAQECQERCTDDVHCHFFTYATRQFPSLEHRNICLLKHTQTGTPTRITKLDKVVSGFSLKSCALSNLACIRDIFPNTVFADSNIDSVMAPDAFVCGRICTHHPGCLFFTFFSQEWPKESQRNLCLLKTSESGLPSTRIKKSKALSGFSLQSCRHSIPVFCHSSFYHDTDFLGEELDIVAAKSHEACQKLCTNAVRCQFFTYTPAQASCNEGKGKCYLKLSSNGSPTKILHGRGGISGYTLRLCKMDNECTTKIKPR
row,Ki,Compound
1,546 nM,NCc1ccc2c(c1)CCN([C@@H](Cc1ccccc1)c1ncc(-c3ccc(C(=O)O)s3)[nH]1)C2=O [Example 5]
2,907 nM,Cc1nc2cc(NC(=O)[C@H](Cc3ccccc3)N3CCc4cc(CN)ccc4C3=O)ccc2s1 [Example 8]
3,4130 nM,NCc1ccc2c(c1)CCN([C@@H](Cc1ccccc1)c1ncc(-c3cccc(F)c3)[nH]1)C2=O [Example 10]
4,506 nM,NCc1ccc2c(c1)CCN([C@@H](Cc1ccccc1)c1nc(Cl)c(-c3ccc(NC(=O)OC4CCCC4)cc3)[nH]1)C2=O [Example 15]
5,254 nM,Cc1nnc(-c2ccc(NC(=O)[C@H](Cc3ccccc3)N3CCc4cc(CN)ccc4C3=O)cc2)[nH]1 [Example 21]
6,1080 nM,NCc1ccc2c(c1)CCN([C@@H](Cc1ccccc1)C(=O)Nc1ccc3ccncc3c1)C2=O [Example 24]
7,221 nM,NCc1ccc2c(c1)CCN([C@@H](Cc1ccccc1)C(=O)Nc1ccc(-c3cnc(C4CC4)o3)cc1)C2=O [Example 25]
8,284 nM,Cc1nc2ccc(NC(=O)[C@H](Cc3ccccc3)N3CCc4cc(CN)ccc4C3=O)cc2s1 [Example 27]
9,198 nM,"COC(=O)Nc1ccc(-c2cnc([C@H](Cc3ccccc3)N3CCc4c(ccc(CN)c4C4CC4)C3=O)[nH]2)cc1 [Example 29, (S)-methyl (4-(2-(1-(6-(aminomethyl)-5-cyclopropyl-1-oxo-3,4-dihydroisoquinolin-2(1H)-yl)-2-phenylethyl)-1H-imidazol-5-yl)phenyl)carbamate 2,2,2-trifluoroacetate]"

# Continued, molecule first:
row,Compound,Ki
1,"NCc1ccc2c(c1)CCN([C@@H](Cc1ccccc1)C(=O)Nc1ccc(C(=O)O)cc1)C2=O [Example 1, 4-({(2S)-2-[6-(aminomethyl)-1-oxo-3,4-dihydroisoquinolin-2(1H)-yl]-3-phenylpropanoyl}amino)benzoic acid trifluoroacetate]",44 nM
2,"COC(=O)Nc1ccc(-c2cnc([C@H](Cc3ccccc3)N3CCc4cc(CN)ccc4C3=O)[nH]2)cc1 [Example 2, (S)-METHYL (4-(2-(1-(6-(AMINOMETHYL)-1-OXO-3,4-DIHYDROISOQUINOLIN-2(1H)-YL)-2-PHENYLETHYL)-1H-IMIDAZOL-5-YL)PHENYL)CARBAMATE 2,2,2-TRIFLUOROACETATE]",116 nM
3,NCc1ccc2c(c1)CN([C@@H](Cc1ccccc1)C(=O)Nc1ccc(C(=O)O)cc1)C2=O [Example 3],308 nM
4,NCc1ccc2c(c1)CCN(C(Cc1ccccc1)C(=O)Nc1ccc(C(=O)O)cc1)C2=O (centres unmarked) [Example 4],176 nM
5,COC(=O)Nc1ccc(-c2[nH]c([C@H](Cc3ccccc3)N3CCc4cc(CN)ccc4C3=O)nc2Cl)cc1 [Example 6],14 nM
6,NCc1ccc2c(c1)CCN([C@@H](Cc1ccccc1)C(=O)Nc1ccc3[nH]ncc3c1)C2=O [Example 7],246 nM
7,NCc1ccc2c(c1)CCN([C@@H](Cc1ccccc1)C(=O)Nc1cccc(F)c1)C2=O [Example 9],1080 nM
8,COC(=O)Nc1ccc(-c2[nH]c([C@H](Cc3ccccc3)N3CCc4cc(CN)ccc4C3=O)nc2C)cc1 [Example 11],84 nM
9,NCc1ccc2c(c1)CCN([C@@H](Cc1ccccc1)c1ncc(-c3ccc4c(N)n[nH]c4c3)[nH]1)C2=O [Example 12],53 nM
10,NCc1ccc2c(c1)CCN([C@@H](Cc1ccccc1)C(=O)Nc1ccc3c(N)n[nH]c3c1)C2=O [Example 13],151 nM
11,CC(C)COC(=O)Nc1ccc(-c2[nH]c([C@H](Cc3ccccc3)N3CCc4cc(CN)ccc4C3=O)nc2Cl)cc1 [Example 14],435 nM
12,NCc1ccc2c(c1)CCN([C@@H](Cc1ccccc1)C(=O)Nc1ccc(-c3c[nH]cn3)cc1)C2=O [Example 19],68.9 nM
13,NCc1ccc2c(c1)CCN([C@@H](Cc1ccccc1)C(=O)Nc1ccc(-c3cc[nH]n3)cc1)C2=O [Example 20],94.3 nM
14,Cc1ncc(-c2ccc(NC(=O)[C@H](Cc3ccccc3)N3CCc4cc(CN)ccc4C3=O)cc2)o1 [Example 22],240 nM
15,Cc1ccc(-c2ccc(NC(=O)[C@H](Cc3ccccc3)N3CCc4cc(CN)ccc4C3=O)cc2)o1 [Example 23],1080 nM
16,Cn1ccc(-c2ccc(NC(=O)[C@H](Cc3ccccc3)N3CCc4cc(CN)ccc4C3=O)cc2)n1 [Example 26],207 nM
17,Cc1nsc2ccc(NC(=O)[C@H](Cc3ccccc3)N3CCc4cc(CN)ccc4C3=O)cc12 [Example 28],1470 nM
